The source made the active and inactive calls. The rule behind the calls is not given here.

This is an account of results in ChEMBL document CHEMBL2417463, “Synthesis and identification of new flavonoids targeting liver X receptor β involved pathway as potential facilitators of Aβ clearance with reduced lipid accumulation” (J Med Chem, 2013).

Data set [1] has as its system Mus musculus. The data set is described as follows: Antialzheimer activity in double transgenic B6C3 mouse overexpressing APP swedish mutant and PSEN1dE9 assessed as reduction of amyloid beta42 plaque number in hippocampus at 10 mg/kg, ip administered 3 times per week measured after 6 weeks by OC staining-based fluorescence microscopic analysis relative to vehicle-treated control. Format: functional. On the set-up: scale not given: the % may be the effect or the level left. As to conditions: route intraperitoneal.

For data set [2], the target named is T1, Oxysterols receptor LXR-beta (Mus musculus) (UniProt Q60644).
T1 sequence (whole entry): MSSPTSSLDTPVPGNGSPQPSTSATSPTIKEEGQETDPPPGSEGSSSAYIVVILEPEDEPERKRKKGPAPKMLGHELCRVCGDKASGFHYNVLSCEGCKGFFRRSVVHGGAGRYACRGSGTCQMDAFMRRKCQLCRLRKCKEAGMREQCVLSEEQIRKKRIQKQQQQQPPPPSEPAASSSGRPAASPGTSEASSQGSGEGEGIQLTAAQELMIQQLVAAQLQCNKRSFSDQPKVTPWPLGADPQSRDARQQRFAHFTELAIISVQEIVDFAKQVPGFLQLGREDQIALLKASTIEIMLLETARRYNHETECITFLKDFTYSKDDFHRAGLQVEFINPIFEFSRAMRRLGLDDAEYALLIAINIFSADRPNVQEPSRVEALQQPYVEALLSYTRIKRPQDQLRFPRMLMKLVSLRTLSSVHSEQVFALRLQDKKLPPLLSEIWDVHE
The data set can be described thus: Agonist activity at LXRbeta in mouse BV2 cells assessed as upregulation of apoE protein expression at 1 uM after 48 hrs by Western blot analysis relative to vehicle-treated control. As to conditions: BV-2. Format: cell-based. In general terms: A western blot detects proteins with antibodies after separation by electrophoresis.

For data set [3], the target named is T1, Oxysterols receptor LXR-beta (Mus musculus). The data set is described as follows: Agonist activity at LXRbeta in mouse BV2 cells assessed as degradation of intracellular soluble amyloid beta42 at 0.1 uM preincubated for 18 hrs followed by soluble amyloid beta42 addition measured after 24 hrs by ELISA relative to vehicle-treated control. The format is cell-based. As to conditions: BV-2.

For a further data set, the system named is RAW264.7. The data set is described as follows: Cytotoxicity against mouse RAW264.7 cells assessed as inhibition of cell viability at 50 uM after 48 hrs by SRB assay relative to vehicle-treated control. The format is cell-based. To be noted: raw264.7, 48 h. For orientation: In SRB staining, fixed cells bind dye roughly in proportion to their protein.
The test system of data set [4] is Mus musculus. The data set is described as follows: Antialzheimer activity in double transgenic B6C3 mouse overexpressing APP swedish mutant and PSEN1dE9 assessed as reduction of soluble amyloid beta42 level at 10 mg/kg, ip administered 3 times per week measured after 6 weeks by ELISA relative to vehicle-treated control. Format: functional. To be noted: route intraperitoneal. On the set-up: scale not given: the % may be the effect or the level left.

Data set [5] addresses T1, Oxysterols receptor LXR-beta (Mus musculus). The data set can be described thus: Agonist activity at LXRbeta in mouse RAW264.7 cells assessed as upregulation of ABCA1 protein expression at 1 uM after 18 to 48 hrs by Western blot analysis. The format is cell-based.
Data set [6] has the same target. The data set is described as follows: Agonist activity at LXRbeta in mouse BV2 cells assessed as degradation of intracellular soluble amyloid beta42 at 0.01 uM preincubated for 18 hrs followed by soluble amyloid beta42 addition measured after 24 hrs by ELISA relative to vehicle-treated control. Format: cell-based. As to conditions: BV-2.
Data set [7] has the same target. The data set can be described thus: Agonist activity at LXRbeta in mouse BV2 cells assessed as upregulation of ABCA1 protein expression at 1 uM after 12 to 48 hrs by Western blot analysis. Format: cell-based. As to conditions: BV-2.
For data set [8], the system named is BV-2. The data set is described as follows: Upregulation of NEP mRNA expression in mouse BV2 cells at 0.01 to 1 uM after 18 hrs by real-time qPCR analysis. The format is functional, cell-based. For orientation: In qPCR the cycle at which signal appears reflects the starting amount.
For data set [9], the target named is T2, Oxysterols receptor LXR-alpha (Homo sapiens) (UniProt Q13133).
T2 sequence (whole entry): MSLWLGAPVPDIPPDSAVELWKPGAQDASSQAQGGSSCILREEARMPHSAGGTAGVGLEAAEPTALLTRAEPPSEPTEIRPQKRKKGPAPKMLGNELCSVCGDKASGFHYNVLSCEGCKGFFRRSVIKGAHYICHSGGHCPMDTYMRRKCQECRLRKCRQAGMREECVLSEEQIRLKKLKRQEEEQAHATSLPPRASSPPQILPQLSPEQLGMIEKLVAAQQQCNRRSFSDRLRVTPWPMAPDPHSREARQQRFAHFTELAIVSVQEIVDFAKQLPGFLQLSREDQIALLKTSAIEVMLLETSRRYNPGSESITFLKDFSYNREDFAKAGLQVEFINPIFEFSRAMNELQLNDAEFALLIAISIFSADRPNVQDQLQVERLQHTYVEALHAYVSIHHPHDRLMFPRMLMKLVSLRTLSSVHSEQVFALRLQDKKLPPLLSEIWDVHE
The data set is described as follows: Agonist activity at human LXRalpha transfected in HEK293 cells at 1 uM after 24 hrs by luciferase reporter gene assay relative to vehicle-treated control. The format is cell-based.

In data set [10] the test system is HepG2. The data set is described as follows: Induction of cytoplasmic lipid accumulation in human HepG2 cells at 10 uM after 4 days by oil red O staining-based light microscopic analysis. Format: cell-based. To be noted: hepg2, 96 h.
In data set [11] the target is T1, Oxysterols receptor LXR-beta (Mus musculus). The data set is described as follows: Agonist activity at LXRbeta in mouse BV2 cells assessed as upregulation of ABCA1 protein expression after 12 to 48 hrs by Western blot analysis. The format is cell-based. To be noted: BV-2.
Data set [12] has the same target. The data set is described as follows: Agonist activity at LXRbeta in mouse RAW264.7 cells assessed as upregulation of ABCA1 protein expression after 18 to 48 hrs by Western blot analysis. The format is cell-based.
Data set [13] deals with T3, Oxysterols receptor LXR-beta (Homo sapiens) (UniProt P55055).
T3 sequence (whole entry): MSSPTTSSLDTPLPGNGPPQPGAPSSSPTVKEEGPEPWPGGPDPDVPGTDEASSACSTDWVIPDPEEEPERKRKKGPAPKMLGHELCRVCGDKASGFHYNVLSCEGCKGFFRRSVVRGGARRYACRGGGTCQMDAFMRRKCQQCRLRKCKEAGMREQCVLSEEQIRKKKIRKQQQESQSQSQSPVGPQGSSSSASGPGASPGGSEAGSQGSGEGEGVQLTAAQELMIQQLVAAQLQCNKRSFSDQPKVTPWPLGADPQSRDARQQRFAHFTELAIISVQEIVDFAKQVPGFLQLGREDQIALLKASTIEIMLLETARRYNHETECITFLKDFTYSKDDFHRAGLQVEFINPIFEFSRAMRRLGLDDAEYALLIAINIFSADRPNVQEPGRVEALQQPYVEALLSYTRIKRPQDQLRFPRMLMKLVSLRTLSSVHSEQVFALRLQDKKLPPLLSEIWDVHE
The data set is described as follows: Agonist activity at human LXRbeta transfected in HEK293 cells at 0.1 uM after 24 hrs by luciferase reporter gene assay relative to vehicle-treated control. The format is cell-based.

The test system of data set [14] is BV-2. The data set can be described thus: Upregulation of IDE mRNA expression in mouse BV2 cells at 0.01 to 1 uM after 18 hrs by real-time qPCR analysis. Format: functional, cell-based.
Data set [15] deals with Mus musculus. The data set is described as follows: Antialzheimer activity in double transgenic B6C3 mouse overexpressing APP swedish mutant and PSEN1dE9 assessed as reduction of amyloid beta42 plaque number in cortex at 10 mg/kg, ip administered 3 times per week measured after 6 weeks by OC staining-based fluorescence microscopic analysis relative to vehicle-treated control. Format: functional. On the set-up: scale not given: the % may be the effect or the level left. As to conditions: route intraperitoneal.

Data set [16] has as its system HepG2. The data set can be described thus: Cytotoxicity against human HepG2 cells assessed as inhibition of cell viability at 50 uM after 48 hrs by SRB assay relative to vehicle-treated control. Format: cell-based. As to conditions: hepg2, 48 h, 50 µM.
Data set [17] relates to Mus musculus. The data set is described as follows: Antialzheimer activity in double transgenic B6C3 mouse overexpressing APP swedish mutant and PSEN1dE9 assessed as upregulation of ABCA1 protein expression in brain at 10 mg/kg, ip administered 3 times per week measured after 6 weeks by Western blot analysis relative to vehicle-treated control. Format: functional. To be noted: route intraperitoneal.

Consider `Cc1ccc(/C=C/C(=O)c2ccc(N)cc2O)o1`, for which the Activity in the data set with Mus musculus [1] is 20%; in [3] it was 52%; in the data set on RAW264.7 it was “Non-toxic”; in the data set with Mus musculus [4] it was 31%; in data set [6] it was 29%; in the data set on HepG2 [10], “Toxic”. In addition, the Activity entry in [11] was “Dose-dependent effect”; in data set [12], “Dose-dependent effect”; in the data set on Mus musculus [15], 30%; with HepG2 [16], “Non-toxic”. Besides, the fold change (FC) in [2] is 1.9; in data set [9], 1.19; in data set [13] it was 1.07; in the data set on Mus musculus [17], 2.3. In addition, the outcome in data set [5] and in [7] was Active. For the same compound, the result with BV-2 [8] and with BV-2 [14] was inactive.
